Measurements taken from patent publication US7326809B2, “Salts of 4- or 5-aminosalicylic acid” (Antibe Therapeutics Inc., priority 2004, dated 2008).
Structures can show the parent of a compound that is named as a salt. Where two headings read alike, the source gives them in different places.

Legend:
TNBS-induced colitis [1] = experiment: TNBS-induced colitis in mice: disease activity score and MPO activity; assay type: in vivo, Balb/c mice; conditions: oral every 12 h for 5 days, dose equimolar to mesalamine 50 mg/kg
Procedure: A standard experimental animal model of colitis induced by intracolonic administration of 2,4,6-trinitrobenzene sulfonic acid (TNBS) to mice is used in the following example. A detailed description of this model has been published (Santucci et al. (2003) Gastroenterology 124:1381-94) and is incorporated herein by reference. Briefly, 6-8 week old Balb/c mice were given TNBS intracolonically at a dose of 1.5 mg in 0.1 mL of 30% ethanol. The mice were randomized to the various treatment groups (n=6 per group). Beginning one hour later and continuing every 12 h for 5 days, the mice were treated orally with vehicle (1% carboxymethylcellulose (CMC)), mesalamine (50 mg/kg) or with an equimolar dose of L-arginine salt of mesalamine.
The mice were evaluated (blindly) on the final day of the study for the presence of diarrhea and fecal occult blood, and their body weights were measured. […] The mice were then sacrificed and a sample of the colon was excised for measurement of myeloperoxidase (MPO) activity, an indicia for granulocyte infiltration.

TNBS-induced colitis [2] = experiment: TNBS-induced colitis in rats: edema, MPO activity, body weight; assay type: in vivo, male, Wistar rats; conditions: every 12 h for 4 days, salt at 50% of the dose equimolar to mesalamine 50 mg/kg
Procedure: Colitis was induced in male, Wistar rats by intracolonic administration of TNBS, as outlined in Wallace et al. (1990), Am J Physiol. 258: G527-G534, incorporated herein by reference. Briefly, beginning 1 h later and continuing at 12 h intervals for 4 days, the rats were treated with vehicle (1% CMC), mesalamine (50 mg/kg), L-arginine (equimolar) or L-arginine salt of mesalamine (50% of the equimolar dose). Changes in body weight were recorded, as were incidences of mortality. At the end of the study, the colon was excised and the thickness of the bowel wall was measured with digital callipers, as an index of edema. Also, a sample of tissue was processed for measurement of myeloperoxidase (MPO) activity, as an index of granulocyte infiltration.

[3] = test system: TNF-α, IFN-γ, IL-1, IL-2, IL-10, IL-12 p40, RANTES, COX-1, COX-2, eNOS, iNOS mRNA; experiment: mRNA expression (RT-PCR) of inflammatory cytokines and mediators in colon, TNBS-induced colitis in mice; assay type: in vivo; conditions: equimolar to mesalamine 50 mg/kg
Procedure: The same model was used as described above. In this example, the effects of mesalamine (50 mg/kg) were compared to those of equimolar doses of L-arginine salt of mesalamine. Tissues were processed for measurement of a number of genes for inflammatory cytokines and other mediators.
In particular, mRNA expression in mice of tumour necrosis factor-alpha (TNF-α), interferon gamma (IFN-γ), colonic interleukin (IL)-1, IL-2, IL-10, IL-12 p40, RANTES, cyclooxygenase (COX)-1, COX-2, constitutive endothelial nitric oxide synthase (eNOS), and inducible NOS (iNOS) was measured as described in Wallace et al. (1999) Gastroenterology 117: 557-566, incorporated herein by reference.
Briefly, reverse transcription-polymerase chain reaction (RT-PCR) was used to detect and quantify mRNA of the particular cytokine/chemokine/enzyme. Glyceraldehyde-3-phosphate dehydrogenase (GAPDH) was used as the “housekeeping gene” for mRNA expression (i.e., as an internal control). For each sample, the ratio of the amplification of the target gene to the amplification of GAPDH (expression of each is measured by performing densitometry on gels) was obtained. Comparisons were then made between the relative amplification (expression) of the target gene in tissues for the treatment groups in comparison to the expression in tissues from healthy controls. Thus, the data shown in the following FIGS. represent the relative expression of the target gene (normalized to GAPDH expression) as a ratio to the expression in healthy controls.

[4] = In vitro anti-oxidant assay with a coloured, stable free radical; assay type: biochemical; conditions: for % Free Radical Scavenging: in ethanol, means of quadruplicate experiments; for IC50: concentration that reduced the levels of the free radical by 50%, read-out: 50% Inhibitory Concentrations IC50
Procedure: One of the mechanisms through which mesalamine is thought to provide benefit in the treatment of inflammatory bowel disease is through scavenging of free radicals. Therefore, the anti-oxidant activity of mesalamine was compared to that of L-arginine salt of mesalamine and L-arginine. Anti-oxidant activity of the test drugs was measured in an in vitro assay that employs a coloured, stable free radical as outlined in Vaananen, P. M. et al. (1992) Inflammation 16: 227-240 and Smith, R. C. et al. (1987) Free Rad. Biol. Med. 3: 251-257, both incorporated herein by reference. Drugs with anti-oxidant activity reduce this reagent resulting in a change in colour, which can be detected spectrophotometrically. A range of concentrations of L-arginine salt of mesalamine, mesalamine and L-arginine, all prepared in ethanol, were tested and the concentration that reduced the levels of the free radical by 50% were calculated.

[5] = following oral ingestion of 500 mg; cited from earlier work

N=C(N)NCCC[C@H](N)C(=O)O.Nc1ccc(O)c(C(=O)O)c1 [L-arginine salt of mesalamine, L-arginine salt of 5-aminosalicylic acid]
myeloperoxidase (MPO) activity (granulocyte infiltration) (TNBS-induced colitis [1]; colon sample): superior to mesalamine alone in reducing MPO activity | disease activity score (TNBS-induced colitis [1]; 0 to 4 scale): superior to mesalamine alone in reducing the disease | body weight loss (TNBS-induced colitis [2]): superior to both mesalamine and L-arginine | colitis-associated edema (thickness of the bowel wall) (TNBS-induced colitis [2]): superior to both mesalamine and L-arginine | myeloperoxidase (MPO) activity (granulocyte infiltration) (TNBS-induced colitis [2]): superior to both mesalamine and L-arginine | COX-1 mRNA expression ([3]; colonic): suppressed | COX-2 mRNA expression ([3]; colonic): suppressed | eNOS mRNA expression ([3]; colonic): suppressed | iNOS mRNA expression ([3]; colonic): suppressed | IL-10 mRNA expression [3]: did not suppress | expression of mRNA for several pro-inflammatory cytokines and chemokines [3]: suppressed | mRNA expression of inflammatory cytokines and other mediators, every endpoint (FIGS. 3 to 8) ([3]; normalized to GAPDH, ratio to healthy controls): superior to mesalamine in every endpoint | % Free Radical Scavenging ([4]; 0.03 mM): 5.2% | % Free Radical Scavenging ([4]; 0.1 mM): 23.9% | % Free Radical Scavenging ([4]; 0.3 mM): 57.7% | % Free Radical Scavenging ([4]; 1 mM): 96.3% | % Free Radical Scavenging ([4]; 3 mM): 100% | % Free Radical Scavenging ([4]; 10 mM): 100% | anti-oxidant potency relative to mesalamine ([4]; from IC50 values): about three-times more potent

Nc1ccc(O)c(C(=O)O)c1 [L-arginine salt of mesalamine, L-arginine salt of 5-aminosalicylic acid]
IC50 ([4]; listed as ATB-428): 0.407 mM

N=C(N)NCCC[C@H](N)C(=O)O [L-arginine]
% Free Radical Scavenging ([4]; 0.03 mM): 0% | % Free Radical Scavenging ([4]; 0.1 mM): 0% | % Free Radical Scavenging ([4]; 0.3 mM): 0% | % Free Radical Scavenging ([4]; 1 mM): 0% | % Free Radical Scavenging ([4]; 3 mM): 0% | % Free Radical Scavenging ([4]; 10 mM): 0% | IC50 [4]: > 10 mM | anti-oxidant activity ([4]; concentrations of up to 10 mM): did not exhibit any anti-oxidant activity | anti-oxidant activity (in words) ([4]; summary statement): very little anti-oxidant activity | free radical scavenging effects (in words) ([4]; summary statement): no free radical scavenging effects

Nc1ccc(O)c(C(=O)O)c1 [Mesalamine, 5-aminosalicylic acid]
luminal concentrations of mesalamine in the colon [5]: 1 mM | % Free Radical Scavenging ([4]; 0.03 mM): 2.2% | % Free Radical Scavenging ([4]; 0.3 mM): 23.6% | % Free Radical Scavenging ([4]; 1 mM): 50.3% | % Free Radical Scavenging ([4]; 3 mM): 96.1% | % Free Radical Scavenging ([4]; 10 mM): 100% | IC50 [4]: 1.25 mM
